Values quoted from earlier work, collected in patent US20060275294A1, “METHOD OF PREVENTION AND TREATMENT OF AGING, AGE-RELATED DISORDERS AND/OR AGE-RELATED MANIFESTATIONS INCLUDING ATHEROSCLEROSIS, PERIPHERAL VASCULAR DISEASE, CORONARY ARTERY DISEASE, OSTEOPOROSIS, ARTHRITIS, TYPE 2 DIABETES, DEMENTIA, ALZHEIMERS DISEASE AND CANCER” (priority 2002, published 2006).

Key:
[1] = molecular target: isopentenyl diphosphate isomerase (Homo sapiens, UniProt Q13907); details: cited from earlier work
GGPP synthase = GGPP synthase (Homo sapiens, UniProt O95749); details: cited from earlier work
Sequence of GGPP synthase (O95749 whole entry, species assumed): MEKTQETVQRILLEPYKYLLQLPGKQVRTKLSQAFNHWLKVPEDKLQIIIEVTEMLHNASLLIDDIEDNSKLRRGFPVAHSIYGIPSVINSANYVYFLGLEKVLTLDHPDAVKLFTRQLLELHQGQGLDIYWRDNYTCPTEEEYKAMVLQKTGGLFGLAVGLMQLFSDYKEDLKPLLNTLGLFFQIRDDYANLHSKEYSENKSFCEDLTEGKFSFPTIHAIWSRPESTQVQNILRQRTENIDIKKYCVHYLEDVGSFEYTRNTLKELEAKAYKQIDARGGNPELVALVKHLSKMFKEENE

[2] = test system: human monocytic THP-1 cells; details: 10 microM, 24 h pretreatment; cited from earlier work
[3] = test system: rat primary astrocytes, microglia, and macrophages; details: cited from earlier work
[4] = test system: human T, B and myeloma tumor cells; details: by promoting apoptosis; cited from earlier work
NF-kappaB = details: pretreatment, rat VSMCs; cited from earlier work
[5] = molecular target: Recombinant human farnesyl diphosphate synthase (Homo sapiens, UniProt P14324); details: cited from earlier work
Sequence of Recombinant human farnesyl diphosphate synthase (P14324 whole entry): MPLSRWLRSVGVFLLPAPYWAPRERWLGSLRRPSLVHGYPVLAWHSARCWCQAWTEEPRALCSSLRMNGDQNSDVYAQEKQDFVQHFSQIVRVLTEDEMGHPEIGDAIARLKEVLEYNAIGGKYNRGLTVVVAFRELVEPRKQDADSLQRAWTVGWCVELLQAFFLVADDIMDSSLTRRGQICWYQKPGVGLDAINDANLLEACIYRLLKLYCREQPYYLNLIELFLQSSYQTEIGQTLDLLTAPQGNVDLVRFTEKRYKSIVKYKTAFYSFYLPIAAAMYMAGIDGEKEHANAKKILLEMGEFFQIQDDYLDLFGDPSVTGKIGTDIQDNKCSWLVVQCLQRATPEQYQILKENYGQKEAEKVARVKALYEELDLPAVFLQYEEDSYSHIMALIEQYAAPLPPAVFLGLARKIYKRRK

[6] = test system: interleukin (IL)-6 bioactivity; details: cited from earlier work

Sequence of isopentenyl diphosphate isomerase (Q13907 whole entry): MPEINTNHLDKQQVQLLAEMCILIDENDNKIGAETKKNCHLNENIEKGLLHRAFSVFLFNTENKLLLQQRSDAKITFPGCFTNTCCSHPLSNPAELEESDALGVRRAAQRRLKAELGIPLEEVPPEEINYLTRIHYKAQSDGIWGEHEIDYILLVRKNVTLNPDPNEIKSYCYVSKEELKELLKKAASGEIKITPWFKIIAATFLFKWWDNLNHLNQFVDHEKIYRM

NCCCC(O)(P(=O)(O)O)P(=O)(O)O [alendronate]
inhibition of isopentenyl diphosphate isomerase [1]: did not inhibit
inhibition of GGPP synthase (GGPP synthase): did not inhibit

CC[C@H](C)C(=O)O[C@H]1C[C@@H](C)C=C2C=C[C@H](C)[C@H](CC[C@@H]3C[C@@H](O)CC(=O)O3)[C@H]21 [lovastatin]
hydrogen peroxide (H2O2) generation [2]: markedly suppressed
LPS-mediated activation of NF kappa B ([3]; astrocytes): Inhibition
LPS-induced expression of TNF-alpha, IL-1beta, and IL-6 ([3]; rat primary astrocytes, microglia, macrophages): inhibited
LPS and cytokine-mediated production of NO and expression of iNOS ([3]; rat primary astrocytes): inhibit
effect on human T, B and myeloma tumor cells [4]: cytotoxic effect

Cc1ccc(S(=O)(=O)N[C@@H](Cc2ccccc2)C(=O)CCl)cc1 [TPCK]
Sar1 Ang II-induced NF-kappaB activation and induction of endogenous IL-6 gene expression (NF-kappaB): completely blocked

O=P(O)(O)C(Cl)(Cl)P(=O)(O)O [clodronate]
inhibition of recombinant farnesyl diphosphate synthase [5]: not at all

O=c1c(-c2ccc(O[C@@H]3O[C@H](CO)[C@@H](O)[C@H](O)[C@H]3O)cc2)coc2cc(O)cc(O)c12 [Sophoricoside]
IC50 [6]: 6.1 µM
